The values that follow come from patent US9447051B2, “Diaminopyrimidines and uses thereof” (AbbVie inc., priority 2012, dated 2016).

The test has as its system RSV (Group A, Long Strain). Put plainly: Antiviral (RSV) assay: cytopathetic effect (CPE) protection assay in HEp-2 cells, MTT readout. Conditions: human respiratory syncytial virus, HEp-2, 96 h, Table 1, 0.2 MOI RSV, 4 days incubation, protection from CPE. The test is classed as cell-based, human respiratory syncytial virus (RSV). The method, then:
HEp-2 cells and RSV (Group A, Long Strain) were obtained from the American Type Culture Collection (Manassas, Va.). A cytopathetic effect (CPE) protection assay was performed to determine the ability of a compound to protect the cells from viral infection and thus the CPE induced by viral infection. 96-well plates were first seeded with 3×10^3 HEp-2 cells per well in Dulbecco's modified Eagle's medium (DMEM) containing 10% fetal bovine serum (FBS). One day after the cells were seeded, they were preincubated with serial dilutions of compounds prepared in 100 μL assay medium (DMEM mixed with F12 medium at a 1:1 ratio, supplemented with 2% FBS and 1 mM sodium pyruvate) for 1 hour at 37° C. 100 μL of assay medium containing 0.2 multiplicity of infection (MOI) of RSV was then added to each well of cells. In addition to wells containing infected cells incubated with compounds, each plate also contained replicates of two kinds of controls: (1) Virus control contained cells infected with 0.2 MOI of RSV in assay medium, (2) Uninfected cell control contained cells incubated with assay medium only. After 4 days of incubation at 37° C., the viability of cells was assessed using MTT (Thiazolyl blue tetrazolium bromide, Sigma). A stock solution of MTT, at a concentration of 4 mg/mL in phosphate-buffered saline, was added to all wells at 25 μL per well. Plates were further incubated for 4 hours, and each well was then treated with 50 μL of a solution containing 20% sodium dodecyl sulfate (SDS) and 0.02 N HCl. After an overnight incubation, the plates were measured on a BioTek® microtiter plate reader at wavelengths of 570 nm and 650 nm. The MTT detection is based on the fact that viable (uninfected) cells can reduce the tetrazolium salts into colored formazan products, which can then be quantitated by spectrometry. […] Compounds were tested to determine both their antiviral and toxicity to determine their therapeutic window. Determination of the EC50 and TD50 of these active compounds were repeated one additional time to confirm the window.
What is called EC50 is the midpoint of the concentration-response curve. Lower therefore signals a more potent agent. `COc1ccc(CNc2nc(C)c(C)c(NC3CCCCC3)n2)cc1` [Example 8, N^4-cyclohexyl-N^2-(4-methoxybenzyl)-5,6-dimethylpyrimidine-2,4-diamine]: the EC50 is greater than 3.7 µM.

Take `Cc1nc(NCc2cc(Cl)ccn2)nc(NC2CCCCC2)c1C` [Example 27, N^2-[(4-chloropyridin-2-yl)methyl]-N^4-cyclohexyl-5,6-dimethylpyrimidine-2,4-diamine]: the EC50 turned out to be 0.042 µM.

For the compound `Cc1nc(NCc2ccccn2)nc(Nc2ccnn2C)c1C` [Example 74, 5,6-dimethyl-N^4-(1-methyl-1H-pyrazol-5-yl)-N^2-(pyridin-2-ylmethyl)pyrimidine-2,4-diamine], the EC50 came to 0.65 µM.

Compound `Cc1ccnc(CNc2nc(C)c(C)c(NC3CCCCC3)n2)c1` [Example 17, N^4-cyclohexyl-5,6-dimethyl-N^2-[(4-methylpyridin-2-yl)methyl]pyrimidine-2,4-diamine] displayed an EC50 of 0.034 µM.

On to `Cc1cccc(C)c1Nc1nc(NCc2ccccn2)nc(C)c1C` [Example 68, N^4-(2,6-dimethylphenyl)-5,6-dimethyl-N^2-(pyridin-2-ylmethyl)pyrimidine-2,4-diamine], for which a half-maximal effect (EC50) was put at 0.009 µM.

For the compound `Cc1nc(NCc2ccc(F)cc2)nc(NC2CCCCC2)c1C` [Example 9, N^4-cyclohexyl-N^2-(4-fluorobenzyl)-5,6-dimethylpyrimidine-2,4-diamine], the EC50 is greater than 3 µM.

For the compound `Cc1nc(NCc2ccccn2)nc(NC2CCCC2)c1C` [Example 29, N^4-cyclopentyl-5,6-dimethyl-N^2-(pyridin-2-ylmethyl)pyrimidine-2,4-diamine], a half-maximal response (EC50) required 0.92 µM.

`Cc1nc(NCc2ccccn2)nc(NC2CCN(C(=O)OC(C)(C)C)CC2)c1C` [Example 82, tert-butyl 4-({5,6-dimethyl-2-[(pyridin-2-ylmethyl)amino]pyrimidin-4-yl}amino)piperidine-1-carboxylate]: a half-maximal effect (EC50) was put at 0.54 µM.

`CCC(CC)Nc1nc(NCc2ccccn2)nc(C)c1C` [Example 48, 5,6-dimethyl-N^4-(pentan-3-yl)-N^2-(pyridin-2-ylmethyl)pyrimidine-2,4-diamine] had an EC50 of 0.27 µM.

`Cc1nc(NCc2ccccn2)nc(NC2CCC(C(F)(F)F)CC2)c1C` (stereo not drawn) [Example 31, 5,6-dimethyl-N^2-(pyridin-2-ylmethyl)-N^4-[4-(trifluoromethyl)cyclohexyl]pyrimidine-2,4-diamine]: the EC50 is greater than 9.6 µM.

`Cc1cc(Nc2nc(NCc3ccccn3)nc(C)c2C)no1` [Example 96, 5,6-dimethyl-N^4-(5-methyl-1,2-oxazol-3-yl)-N^2-(pyridin-2-ylmethyl)pyrimidine-2,4-diamine] yielded an EC50 of 15 µM.

`Cc1nc(NCc2ccccn2)nc(Nc2ccc(F)cc2F)c1C` [Example 88, N^4-(2,4-difluorophenyl)-5,6-dimethyl-N^2-(pyridin-2-ylmethyl)pyrimidine-2,4-diamine] registered an EC50 of 0.038 µM.

As for `Cc1nc(NCc2ccccn2)nc(Nc2ccc(C(F)(F)F)cc2)c1C` [Example 57, 5,6-dimethyl-N^2-(pyridin-2-ylmethyl)-N^4-[4-(trifluoromethyl)phenyl]pyrimidine-2,4-diamine], the response was half-maximal at 0.23 µM (EC50).

`Cc1nc(NCc2ccccn2)nc(Nc2ccccc2Cl)c1C` [Example 66, N^4-(2-chlorophenyl)-5,6-dimethyl-N^2-(pyridin-2-ylmethyl)pyrimidine-2,4-diamine] showed an EC50 of 0.034 µM.

The compound `Cc1nc(NCc2ccccn2)nc(NC2CCC2)c1C` [Example 47, N^4-cyclobutyl-5,6-dimethyl-N^2-(pyridin-2-ylmethyl)pyrimidine-2,4-diamine] registered a 50% effective concentration (EC50) greater than 5.3 µM.

`Cc1nc(NCc2ccccn2)nc(Nc2ccon2)c1C` [Example 95, 5,6-dimethyl-N^4-(1,2-oxazol-3-yl)-N^2-(pyridin-2-ylmethyl)pyrimidine-2,4-diamine] had an EC50 of 5.3 µM.

`Cc1nc(NCc2ccccn2)nc(NCc2ccc(F)cc2)c1C` [Example 97, N^4-(4-fluorobenzyl)-5,6-dimethyl-N^2-(pyridin-2-ylmethyl)pyrimidine-2,4-diamine]: the EC50 stood at 0.14 µM.

`Cc1nc(NCc2ccccn2)nc(N[C@H]2CCCC[C@H]2CO)c1C` (racemic) [Example 43, rac-[(1R,2S)-2-({5,6-dimethyl-2-[(pyridin-2-ylmethyl)amino]pyrimidin-4-yl}amino)cyclohexyl]methanol] showed an EC50 of 0.19 µM.

Compound `Cc1nc(NCc2ccccn2)nc(NC2CC3CCC2C3)c1C` (stereo not drawn) [Example 39, N^4-(bicyclo[2.2.1]hept-2-yl)-5,6-dimethyl-N^2-(pyridin-2-ylmethyl)pyrimidine-2,4-diamine] showed an EC50 of 1.25 µM.

With `Cc1nc(NCc2cc(C(C)(C)C)ccn2)nc(NC2CCCCC2)c1C` [Example 21, N^2-[(4-tert-butylpyridin-2-yl)methyl]-N^4-cyclohexyl-5,6-dimethylpyrimidine-2,4-diamine], the EC50 is greater than 6.1 µM.

The compound `Cc1nc(NCc2cccc(F)c2)nc(NC2CCCCC2)c1C` [Example 13, N^4-cyclohexyl-N^2-(3-fluorobenzyl)-5,6-dimethylpyrimidine-2,4-diamine] yielded an EC50 greater than 1 µM.

Take `Cc1ccc(O)c(CNc2nc(C)c(C)c(NC3CCCCC3)n2)n1` [Example 7, 2-({[4-(cyclohexylamino)-5,6-dimethylpyrimidin-2-yl]amino}methyl)-6-methylpyridin-3-ol]: the EC50 was greater than 12 µM.

On to `Cc1nc(NCc2ccccn2)nc(Nc2nncs2)c1C` [Example 94, 5,6-dimethyl-N^2-(pyridin-2-ylmethyl)-N^4-(1,3,4-thiadiazol-2-yl)pyrimidine-2,4-diamine], for which the EC50 is 2.4 µM.

On to `Cc1nc(NCc2ccccn2)nc(NC2CCNCC2)c1C` [Example 83, 5,6-dimethyl-N^4-(piperidin-4-yl)-N^2-(pyridin-2-ylmethyl)pyrimidine-2,4-diamine], for which the EC50 came out at 33 µM.

The compound `Cc1nc(NCc2ccccn2)nc(Nc2cccc(Cl)c2)c1C` [Example 65, N^4-(3-chlorophenyl)-5,6-dimethyl-N^2-(pyridin-2-ylmethyl)pyrimidine-2,4-diamine] returned an EC50 of 0.04 µM.

The compound `Cc1nc(N[C@H](C)c2ccccc2)nc(NC2CCCCC2)c1C` [Example 15, N^4-cyclohexyl-5,6-dimethyl-N^2-[(1R)-1-phenylethyl]pyrimidine-2,4-diamine] showed an EC50 greater than 1.9 µM.

With `Cc1nc(NCc2ccccn2)nc(NC2CCC(F)(F)CC2)c1C` [Example 32, N^4-(4,4-difluorocyclohexyl)-5,6-dimethyl-N^2-(pyridin-2-ylmethyl)pyrimidine-2,4-diamine], the EC50 was determined as 0.22 µM.

Regarding `Cc1nc(N[C@@H](C)c2ccccc2)nc(NC2CCCCC2)c1C` [Example 16, N^4-cyclohexyl-5,6-dimethyl-N^2-[(1S)-1-phenylethyl]pyrimidine-2,4-diamine], the EC50 was greater than 3.7 µM.

As for `Cc1cccc(Nc2nc(NCc3ccccn3)nc(C)c2C)c1` [Example 69, 5,6-dimethyl-N^4-(3-methylphenyl)-N^2-(pyridin-2-ylmethyl)pyrimidine-2,4-diamine], a half-maximal effect (EC50) was put at 0.11 µM.

`Cc1ccc(F)cc1Nc1nc(NCc2ccccn2)nc(C)c1C` [Example 71, N^4-(5-fluoro-2-methylphenyl)-5,6-dimethyl-N^2-(pyridin-2-ylmethyl)pyrimidine-2,4-diamine] yielded an EC50 of 0.04 µM.

In turn, `Cc1nc(NCc2cn(C)cn2)nc(NC2CCCCC2)c1C` [Example 24, N^4-cyclohexyl-5,6-dimethyl-N^2-[(1-methyl-1H-imidazol-4-yl)methyl]pyrimidine-2,4-diamine] gave an EC50 of 0.045 µM.

In turn, `Cc1cc(F)c(F)cc1Nc1nc(NCc2ccccn2)nc(C)c1C` [Example 73, N^4-(4,5-difluoro-2-methylphenyl)-5,6-dimethyl-N^2-(pyridin-2-ylmethyl)pyrimidine-2,4-diamine] had an EC50 of 0.024 µM.

In the case of `Cc1nc(NCc2ccccn2)nc(Nc2cccc(F)c2)c1C` [Example 49, N^4-(3-fluorophenyl)-5,6-dimethyl-N^2-(pyridin-2-ylmethyl)pyrimidine-2,4-diamine], the EC50 amounted to 0.31 µM.

In turn, `Cc1nc(NCc2ccccn2)nc(Nc2ccccc2)c1C` [Example 52, 5,6-dimethyl-N^4-phenyl-N^2-(pyridin-2-ylmethyl)pyrimidine-2,4-diamine] gave an EC50 of 0.27 µM.

`CCc1ccnc(CNc2nc(C)c(C)c(NC3CCC(F)(F)CC3)n2)c1` [Example 90, N^4-(4,4-difluorocyclohexyl)-N^2-[(4-ethylpyridin-2-yl)methyl]-5,6-dimethylpyrimidine-2,4-diamine]: the EC50 stood at 0.51 µM.

As to `Cc1nc(NCc2c(C)noc2C)nc(NC2CCCCC2)c1C` [Example 23, N^4-cyclohexyl-N^2-[(3,5-dimethyl-1,2-oxazol-4-yl)methyl]-5,6-dimethylpyrimidine-2,4-diamine], the EC50 is greater than 10 µM.
